Results published in BindingDB's records for doi:10.1021/jm040209d (University of Illinois At Urbana-Champaign, 2005).
pKi: −log10 of the molar value.

Target: Farnesyl diphosphate synthase (Leishmania major)
Assay: Binding affinity towards Farnesyl diphosphate synthase from leishmania major

pKi | Structure (SMILES)
7.52 | COc1ccc[n+](CC(O)(P(=O)([O-])O)P(=O)(O)O)c1 (configuration not stated) [hydrogen 1-hydroxy-2-(3-methoxypyridinium-1-yl)-1-phosphonoethylphosphonate]
7.42 | Cc1ccc[n+](CC(O)(P(=O)([O-])O)P(=O)(O)O)c1 (configuration not stated) [hydrogen 1-hydroxy-2-(3-methylpyridinium-1-yl)-1-phosphonoethylphosphonate]
7.15 | Cc1cccc(Cc2ccc[n+](CC(O)(P(=O)([O-])O)P(=O)(O)O)c2)c1 (configuration not stated) [hydrogen 1-hydroxy-2-[3-(3-methylbenzyl)pyridinium-1-yl]-1-phosphonoethylphosphonate]
6.80 | O=P([O-])(O)C(O)(C[n+]1cccc(Cc2ccccc2)c1)P(=O)(O)O (configuration not stated) [hydrogen 2-(3-benzylpyridinium-1-yl)-1-hydroxy-1-phosphonoethylphosphonate]
7.70 | CCCCc1ccc[n+](CC(O)(P(=O)([O-])O)P(=O)(O)O)c1 (configuration not stated) [hydrogen 2-(3-butylpyridinium-1-yl)-1-hydroxy-1-phosphonoethylphosphonate]
7.30 | O=P([O-])(O)C(O)(C[n+]1cccc(F)c1)P(=O)(O)O (configuration not stated) [hydrogen 2-(3-fluoropyridinium-1-yl)-1-hydroxy-1-phosphonoethylphosphonate]
7.12 | O=P([O-])(O)C(O)(C[n+]1cccc(-c2ccc(O)cc2)c1)P(=O)(O)O (configuration not stated) [sodium hydrogen 1-hydroxy-2-[3-(4-oxidophenyl)pyridinium-1-yl]-1-phosphonoethylphosphonate]
